Assay results from patent publication US20090317419A1, “Tetramers” (Duke University, priority 2008, published 2009).
Read-outs that look alike come from different tables or passages of the source. Marks after values point to notes of the source that are not given here. Ends that are not written are not given here. * marks the point of attachment. Biotin = O=C1N[C@H]2[C@H](CS[C@H]2CCCCC(=O)*)N1

Columns and labels:
[1] = test system: naïve splenic B cells, C57BL/6 congenic strain bearing the IgH^a allotype
Method: (§1) Mice. Female C57BL/6, BALB/c, B6Igh^a, and CB17 (BALBc Igh^b) inbred mouse strains (8-12 weeks of age) were purchased from Charles River Laboratories. All mice were housed in the Duke University Animal Facility in a pathogen-free environment with 12 hour light/dark cycles at 20-25° C. under AALAC guidelines and in accordance with all Institutional Animal Care and Use Committee and Duke University Institutional Biosafety Committee-approved animal protocols.
(§2) Antibodies and flow cytometry. Immunofluorescent staining of single cell suspensions (≧2×10^6) was conducted using pre-mixed combinations of fluorochrome-labeled antibodies and APC-conjugated B cell tetramers at empirically-determined optimal concentrations. All antibodies were from BD unless otherwise stated. […] Other reagents included biotinylated antibodies against dump channel markers: Thy1 (Ox7; Abcam), F4/80 (BM8; Abcam), CD11c (clone HL3), Gr-1 (clone RB6-8C5), TER-119, and NK-1.1 (clone PK136), secondary staining SA-Texas Red conjugate; v-amine live/dead violet dye (Molecular Probes), and Fc block (anti-CD16/32; clone 2.4G2).
(§3) Staining was conducted at 4° C. in several sequential steps in FACS staining buffer (1×PBS with 2% FCS, 0.1% NaN3), washing twice between steps. First, cells were incubated with v-amine live/dead dye for 15 min. Next, cells were stained with APC-labeled tetramers for 30 min. […]

[2] = test system: naïve splenic B cells, BALB/c congenic strain bearing the IgH^b allotype
Method: as §1, §2, §3

[3] = test system: B cell subsets from naive C57BL/6 mice
Method: Cell isolation, serum collection, and PBMC isolations. Heparinized or non-heparanized blood was collected sub-mandibularly 10 days after immunizations. For preparation of peripheral blood lymphocytes for B cell tetramer analysis, PBMC were isolated from blood collected in heparinized tubes (0.2 ml) using Lympholyte M (Cederlane). For Luminex and ELISA assays, sera was isolated from non-heparanized blood and stored at −20° C. until use. Spleen, bone marrow (BM), and peritoneal cavity (PerC) cells were also collected. For most immunizations, tissues were harvested after the 4th boost, except for kinetic studies, in which tissues from mice were harvested after 1, 3 or 7 days after a single immunization. For BM preparations, femora and tibiae were removed, aspirated with tissue medium using 23 gauge needles, filtered with 70 μm cell strainers (BD labware), and RBC-depleted using Tris-buffered ammonium chloride lysis. For splenocyte preparation, spleens were harvested and dissociated into single-cell suspensions either by passage through 70 μm cell strainers in tissue medium or by using frosted glass slides, and blood erythrocytes were depleted with ammonium chloride lysis. For isolation of peritoneal cells, peritoneal cavities of sacrificed mice were lavaged by injection with 10 ml of PBS, followed by gentle massage of the abdomen, and withdrawal of the peritoneal exudates. BM, splenic, and peritoneal single cell suspensions were centrifuged at 1500 rpm for 5 min and resuspended in 5, 10, and 1 ml of tissue media, respectively, for cell counts and immunofluorescence staining. Cell counts were performed in duplicate on a Coulter ZI Dual Threshold Cell Counter (Coulter).
as §2
Staining was conducted at 4° C. in several sequential steps in FACS staining buffer (1×PBS with 2% FCS, 0.1% NaN3), washing twice between steps. First, cells were incubated with v-amine live/dead dye for 15 min. Next, cells were stained with APC-labeled tetramers for 30 min. Where applicable, this was preceded by addition of cold tetramer at 10 fold molar excess for 1 h. Finally, cells were stained with Fc block for 30 min, followed by incubation with combinations of primary antibody cocktails for 30 min, and secondary staining with SA-Texas Red for 30 min.
Data were acquired using an LSRII flow cytometer and Cell Quest software (BD Immunocytometry systems). A minimum of 250000 events were acquired per sample. FACS Analysis was performed using FlowJo software (Tree Star). For analysis, single cells were positively gated based on their forward scatter height vs. forward scatter area and side scatter height vs. side scatter area profiles, lymphocytes were then positively gated based on their forward and side scatter profile (live lymphocyte gate), residual dead cells were excluded with negative gating on v-amine live/dead dye, and all irrelevant non-B cells were excluded with negative gating on dump markers Thy1, F4/80, CD11c, Gr-1, TER-119, and NK-1.1.
To examine if gp41 2F5 MPER epitope reactivity across B cell subsets mapped similarly on the IgH^b allotype, reactivity to gp41 2F5 MPER tetramers was measured by measuring the percentage of APC-labeled gp41 2F5 MPER tetramer-reactive cells in C57BL/6 bone marrow, splenic, and peritoneal B cell subsets (Table 10).

[4] = test system: mAb 13H11 (non-neutralizing anti-gp41 MPER); conditions: SPR, mAb 13H11 captured
Method: (§4) Surface Plasmon Resonance (SPR) measurements of tetramer binding to peptide epitopes. Tetramer binding assays were carried out on a BIAcore 3000 (BIAcore/GE Healthcare, Piscataway, N.J.) instrument using mAbs against each specific B cell epitope.
(§5) Each mAb (about 1000 RU) was first captured on anti-human Fc mAb (Pierce, Rockford, Ill.) immobilized on a CM5 sensor chip. Approximately 3000 RU of anti-human Fc mAb was covalently coupled to each flow cell of the sensor chip as described before (Alam et al, Journal of Immunology 178:4424-4435 (2007)). Each B cell tetramer was injected over its epitope specific mAb or a control surface immobilized with irrelevant mAb. For each tetramer binding curve, non-specific binding signals obtained from the control surface were subtracted. The binding assay was monitored at 25° C. and using PBS, pH 7.4, as the running buffer. The BIAevaluation 3.0 software (BIAcore/GE Healthcare, Piscataway, N.J.) was used for SPR binding data analyses.

[5] = test system: mAb 2F5 (neutralizing anti-gp41 MPER); conditions: SPR, mAb 2F5 captured
Method: as §4, §5

## Biotin-GGGQQEKNEQELLELDKWASLWN [gp41 MPER tetramer]
[1]
  tetramer binding to splenic B cells: restores gp41 2F5 MPER binding
[2]
  tetramer binding to splenic B cells: completely loses gp41 2F5 MPER binding
[3]; C57BL/6, Bone marrow, Immature
  % of subset binding tetramer ± SEM: 0.30 ± 0.04%
[3]; C57BL/6, Bone marrow, MF
  % of subset binding tetramer ± SEM: 0.15 ± 0.06%
[3]; C57BL/6, Bone marrow, Pro/pre
  % of subset binding tetramer ± SEM: 0.05 ± 0.01%
[3]; C57BL/6, Bone marrow, T1
  % of subset binding tetramer ± SEM: 0.62 ± 0.10^d %
[3]; C57BL/6, Bone marrow, T2
  % of subset binding tetramer ± SEM: 0.54 ± 0.09^d %
[3]; C57BL/6, Peritoneum, B1a
  % of subset binding tetramer ± SEM: 0.52 ± 0.08%
[3]; C57BL/6, Peritoneum, B1b
  % of subset binding tetramer ± SEM: 0.50 ± 0.13%
[3]; C57BL/6, Peritoneum, B2
  % of subset binding tetramer ± SEM: 0.32 ± 0.09%
[3]; C57BL/6, Spleen, MF
  % of subset binding tetramer ± SEM: 0.16 ± 0.02%
[3]; C57BL/6, Spleen, MZ
  % of subset binding tetramer ± SEM: 0.25 ± 0.04%
[3]; C57BL/6, Spleen, T1
  % of subset binding tetramer ± SEM: 0.24 ± 0.06%
[3]; C57BL/6, Spleen, T2
  % of subset binding tetramer ± SEM: 0.21 ± 0.07%
[4]
  koff: 8.1 s^−1 × 10^−3
  kon: 206 M^−1s^−1 × 10^3
[5]
  koff: 0.37 s^−1 × 10^−3
  kon: 174 M^−1s^−1 × 10^3
